From PubChem BioAssay AID330 (DTP/NCI, 2004)
“And” between values parts separate entries of the source, which are not always exact repeats. Equal entries are not always repeated. Inconclusive results and toxic doses are left out. The calls were made as follows: active = survival T/C of 150% or more; inactive = T/C below 125% in these data.

System: P388 leukemia ip, CD2F1 mice, survival T/C
Experiment: NCI In Vivo Anticancer Drug Screen. Data for tumor model P388 Leukemia (intraperitoneal) in CD2F1 (CDF1) mice
Conditions: endpoint: median survival time, higher = longer survival
How it was run: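 Mice carrying the transplanted tumor received test compound or vehicle. Survival was recorded in each group, and the value is the treated-group measurement divided by that of the vehicle-treated control group.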

[1] = dose: 50.0 mg/kg/injection, schedule: Q01DX005 (ip), vehicle: saline
[2] = dose: 100.0 mg/kg/injection, schedule: Q01DX005 (ip), vehicle: saline
[3] = dose: 200.0 mg/kg/injection, schedule: Q01DX005 (ip), vehicle: saline
[4] = dose: 12.5 mg/kg/injection, schedule: Q01DX009 (ip), vehicle: saline with Tween-80
[5] = dose: 25.0 mg/kg/injection, schedule: Q01DX009 (ip), vehicle: saline with Tween-80
[6] = dose: 50.0 mg/kg/injection, schedule: Q01DX009 (ip), vehicle: saline with Tween-80
[7] = dose: 100.0 mg/kg/injection, schedule: Q01DX009 (ip), vehicle: saline with Tween-80
[8] = dose: 6.25 mg/kg/injection, schedule: Q01DX009 (ip), vehicle: Klucel (hydroxypropylcellulose) (HPC)
[9] = dose: 12.5 mg/kg/injection, schedule: Q01DX009 (ip), vehicle: Klucel (hydroxypropylcellulose) (HPC)
[10] = dose: 50.0 mg/kg/injection, schedule: Q01DX009 (ip), vehicle: Klucel (hydroxypropylcellulose) (HPC)
[11] = dose: 100.0 mg/kg/injection, schedule: Q01DX009 (ip), vehicle: Klucel (hydroxypropylcellulose) (HPC)
[12] = dose: 60.0 mg/kg/injection, schedule: Q01DX005 (ip), vehicle: saline with Tween-80
[13] = dose: 120.0 mg/kg/injection, schedule: Q01DX005 (ip), vehicle: saline with Tween-80
[14] = dose: 50.0 mg/kg/injection, schedule: Q01DX005 (ip), vehicle: Klucel (hydroxypropylcellulose) (HPC)

Measured: T/C

CS(=N)(=O)CCC(N)P(=O)(O)O (stereo unspecified)
inactive: [1] 95 % of control | [2] 92 % of control | [3] 100 % of control

CCOC/C=C\C(C)(C)C
inactive: dose: 50.0 mg/kg/injection, schedule: Q01DX001 (ip), vehicle: saline 107 % of control | dose: 100.0 mg/kg/injection, schedule: Q01DX001 (ip), vehicle: saline 107 % of control | dose: 200.0 mg/kg/injection, schedule: Q01DX001 (ip), vehicle: saline 99 % of control

CNCCC(Oc1ccccc1OC)c1ccccc1 (stereo unspecified)
inactive: dose: 12.5 mg/kg/injection, schedule: Q04DX002 (ip), vehicle: saline with Tween-80 106 % of control | dose: 25.0 mg/kg/injection, schedule: Q04DX002 (ip), vehicle: saline with Tween-80 100 % of control | dose: 25.0 mg/kg/injection, schedule: Q04DX002 (ip), vehicle: saline 113 % of control | dose: 50.0 mg/kg/injection, schedule: Q04DX002 (ip), vehicle: saline with Tween-80 99 % of control and 98 % of control | dose: 50.0 mg/kg/injection, schedule: Q04DX002 (ip), vehicle: saline 103 % of control

OC1(c2cc3ccccc3c3ccccc23)c2ccccc2-c2ccccc21
inactive: dose: 50.0 mg/kg/injection, schedule: Q01DX005 (ip), vehicle: saline with Tween-80 98 % of control | dose: 100.0 mg/kg/injection, schedule: Q01DX005 (ip), vehicle: saline with Tween-80 100 % of control | dose: 200.0 mg/kg/injection, schedule: Q01DX005 (ip), vehicle: saline with Tween-80 100 % of control

OCC(O)C(O)C(O)c1nnc2c3ccccc3c(-c3ccccc3)nn12 (stereo unspecified)
inactive: dose: 100.0 mg/kg/injection, schedule: Q01DX001 (ip), vehicle: saline with Tween-80 89 % of control | dose: 100.0 mg/kg/injection, schedule: Q04DX002 (ip), vehicle: saline with Tween-80 91 % of control | dose: 200.0 mg/kg/injection, schedule: Q01DX001 (ip), vehicle: saline with Tween-80 90 % of control | dose: 200.0 mg/kg/injection, schedule: Q04DX002 (ip), vehicle: saline with Tween-80 90 % of control | dose: 400.0 mg/kg/injection, schedule: Q01DX001 (ip), vehicle: saline with Tween-80 88 % of control | dose: 400.0 mg/kg/injection, schedule: Q04DX002 (ip), vehicle: saline with Tween-80 93 % of control

Cn1c([N+](=O)[O-])cnc1/C=C1\CCc2cc(OCCN3CCCC3)ccc2C1=O
inactive: [4] 90 % of control | [5] 93 % of control

CCOC(=O)c1[nH]c2ccc(OC)c3c2c1CCC3=O
inactive: [6] 92 % of control | [7] 92 % of control | dose: 200.0 mg/kg/injection, schedule: Q01DX009 (ip), vehicle: saline with Tween-80 92 % of control

CC(C)=CCc1c(OC(=O)c2c(C)cc(O)cc2O)cc(CO)c(CO)c1O
inactive: [8] 101 % of control | [9] 100 % of control and 101 % of control | dose: 25.0 mg/kg/injection, schedule: Q01DX009 (ip), vehicle: Klucel (hydroxypropylcellulose) (HPC) 101 % of control and 96 % of control | [10] 101 % of control and 104 % of control | [11] 101 % of control and 102 % of control

CN(C)N1C(=O)C2C3C=CC(O3)C2C1=O (stereo unspecified)
inactive: [1] 104 % of control | [2] 109 % of control | [3] 100 % of control

CCCCCCCCCCCC(=O)OCCN(CCOC(=O)CCCCCCCCCCC)C(=O)COC(=O)CCCCCCCCCCC
inactive: dose: 6.25 mg/kg/injection, schedule: Q01DX009 (ip), vehicle: saline with Tween-80 96 % of control | [4] 98 % of control | [5] 100 % of control | dose: 100.0 mg/kg/injection, schedule: Q01DX009 (ip), vehicle: saline + Tween-80 + alcohol 111 % of control | dose: 200.0 mg/kg/injection, schedule: Q01DX009 (ip), vehicle: saline + Tween-80 + alcohol 107 % of control

CCOC(=O)C(Br)CN1C(=O)c2ccccc2C1=O (stereo unspecified)
inactive: [12] 97 % of control | [13] 115 % of control

CCCCN(C)C12CN3CN(CN(C3)C1)C2
inactive: [10] 101 % of control | [11] 103 % of control | dose: 200.0 mg/kg/injection, schedule: Q01DX009 (ip), vehicle: Klucel (hydroxypropylcellulose) (HPC) 96 % of control

[Cl][Pd][Cl].[NH-]C(CC(N)=O)C(=O)O (stereo unspecified)
inactive: dose: 12.5 mg/kg/injection, schedule: Q01DX005 (ip), vehicle: Klucel (hydroxypropylcellulose) (HPC) 101 % of control | dose: 25.0 mg/kg/injection, schedule: Q01DX005 (ip), vehicle: Klucel (hydroxypropylcellulose) (HPC) 95 % of control | [14] 100 % of control and 113 % of control

O=C(OCC1N=C1c1ccccc1)c1ccc(Br)cc1 (stereo unspecified)
inactive: dose: 100.0 mg/kg/injection, schedule: Q01DX001 (ip), vehicle: suspension in saline 104 % of control | dose: 200.0 mg/kg/injection, schedule: Q01DX001 (ip), vehicle: suspension in saline 99 % of control | dose: 400.0 mg/kg/injection, schedule: Q01DX001 (ip), vehicle: suspension in saline 104 % of control

OCC1OC(Nc2ccccc2/C=N\O)C(O)C1O (stereo unspecified)
inactive: dose: 12.5 mg/kg/injection, schedule: Q01DX009 (ip), vehicle: saline 98 % of control | dose: 25.0 mg/kg/injection, schedule: Q01DX009 (ip), vehicle: saline 107 % of control and 96 % of control | dose: 50.0 mg/kg/injection, schedule: Q01DX009 (ip), vehicle: saline 99 % of control and 115 % of control | dose: 100.0 mg/kg/injection, schedule: Q01DX009 (ip), vehicle: saline 98 % of control and 95 % of control

CC1C[As+](c2ccccc2)(c2ccccc2)CC(C)N1C.[O-][Cl+3]([O-])([O-])[O-] (stereo unspecified)
inactive: [5] 100 % of control | [6] 104 % of control | [7] 106 % of control

O=c1[nH]c2cc([N+](=O)[O-])ccc2nc1/C=C(\O)c1cccnc1
inactive: dose: 60.0 mg/kg/injection, schedule: Q01DX005 (ip), vehicle: Klucel (hydroxypropylcellulose) (HPC) 94 % of control | dose: 120.0 mg/kg/injection, schedule: Q01DX005 (ip), vehicle: Klucel (hydroxypropylcellulose) (HPC) 88 % of control | dose: 240.0 mg/kg/injection, schedule: Q01DX005 (ip), vehicle: Klucel (hydroxypropylcellulose) (HPC) 94 % of control

O=C1c2ccccc2C(=O)c2c(NCCC3CCCN4CCCCC34)cccc21 (stereo unspecified)
inactive: [14] 94 % of control | dose: 100.0 mg/kg/injection, schedule: Q01DX005 (ip), vehicle: Klucel (hydroxypropylcellulose) (HPC) 97 % of control | dose: 200.0 mg/kg/injection, schedule: Q01DX005 (ip), vehicle: Klucel (hydroxypropylcellulose) (HPC) 96 % of control

CC(C(=O)O)N1C(=O)C=CC1=O (stereo unspecified)
inactive: [4] 97 % of control | [5] 91 % of control

Cc1onc(-c2c(F)cccc2Cl)c1C(=O)Oc1ccccc1
inactive: dose: 30.0 mg/kg/injection, schedule: Q01DX005 (ip), vehicle: saline with Tween-80 100 % of control | [12] 100 % of control | [13] 103 % of control | dose: 240.0 mg/kg/injection, schedule: Q01DX005 (ip), vehicle: saline with Tween-80 99 % of control

COc1cc(OC)c(C(C)=O)c(O)c1C
inactive: dose: 12.5 mg/kg/injection, schedule: Q01DX009 (ip), vehicle: distilled water + Tween-80 94 % of control | dose: 25.0 mg/kg/injection, schedule: Q01DX009 (ip), vehicle: distilled water + Tween-80 101 % of control | dose: 50.0 mg/kg/injection, schedule: Q01DX009 (ip), vehicle: distilled water + Tween-80 98 % of control | dose: 100.0 mg/kg/injection, schedule: Q01DX009 (ip), vehicle: distilled water + Tween-80 99 % of control | dose: 200.0 mg/kg/injection, schedule: Q01DX009 (ip), vehicle: distilled water + Tween-80 109 % of control | dose: 400.0 mg/kg/injection, schedule: Q01DX009 (ip), vehicle: distilled water + Tween-80 100 % of control

C[N+](C)(C)CC(C[N+](C)(C)C)C(=O)c1ccccc1
inactive: [8] 107 % of control | [9] 108 % of control

C[C@@H]1CC[C@@]2(OC1)O[C@H]1C[C@H]3[C@@H]4CC=C5C=CCC[C@]5(C)[C@H]4CC[C@]3(C)[C@H]1[C@@H]2C
inactive: dose: 2.25 mg/kg/injection, schedule: Q01DX005 (ip), vehicle: Klucel (hydroxypropylcellulose) (HPC) 100 % of control | dose: 4.5 mg/kg/injection, schedule: Q01DX005 (ip), vehicle: Klucel (hydroxypropylcellulose) (HPC) 100 % of control | dose: 9.0 mg/kg/injection, schedule: Q01DX005 (ip), vehicle: Klucel (hydroxypropylcellulose) (HPC) 105 % of control | dose: 18.0 mg/kg/injection, schedule: Q01DX005 (ip), vehicle: Klucel (hydroxypropylcellulose) (HPC) 100 % of control | dose: 36.0 mg/kg/injection, schedule: Q01DX005 (ip), vehicle: Klucel (hydroxypropylcellulose) (HPC) 98 % of control
